Source: patent publication US20210115104A1, “AMYLIN ANALOGUES” (Zealand Pharma A/S, priority 2015, published 2021)
*1 amine or outer side, *2 acyl side, *3 side chain or, on linkers, in order; H or OH if unused. Where a SMILES comes first, the peptide text is derived from it. Bridges are numbered along the chain shown (N, C = ends). [ ]: non-standard residue; d: D form. The star is where a group is joined. C20 diacid = O=C(O)CCCCCCCCCCCCCCCCCCC(=O)*; γGlu = O=C(O)[C@H](CCC(=O)[*:2])N[*:1]; Hyp = O=C(O)[C@@H]1C[C@@H](O)CN1; NMeI = CC[C@H](C)[C@H](NC)C(=O)O; Aad = N[C@@H](CCCC(=O)O)C(=O)O; Sar = CNCC(=O)O

Key:
[1] = target: T1, human calcitonin receptor (hCTR2) (Homo sapiens, UniProt P30988); experiment: hCTR2 cAMP assay (AlphaScreen) in COS7 cells; type: cell-based; settings: cAMP induction, COS7 cells expressing hCTR2; Table 1; read-out: hCTR2 EC50
T1 construct: expressed in transfected cells
T1 sequence (P30988 25-474): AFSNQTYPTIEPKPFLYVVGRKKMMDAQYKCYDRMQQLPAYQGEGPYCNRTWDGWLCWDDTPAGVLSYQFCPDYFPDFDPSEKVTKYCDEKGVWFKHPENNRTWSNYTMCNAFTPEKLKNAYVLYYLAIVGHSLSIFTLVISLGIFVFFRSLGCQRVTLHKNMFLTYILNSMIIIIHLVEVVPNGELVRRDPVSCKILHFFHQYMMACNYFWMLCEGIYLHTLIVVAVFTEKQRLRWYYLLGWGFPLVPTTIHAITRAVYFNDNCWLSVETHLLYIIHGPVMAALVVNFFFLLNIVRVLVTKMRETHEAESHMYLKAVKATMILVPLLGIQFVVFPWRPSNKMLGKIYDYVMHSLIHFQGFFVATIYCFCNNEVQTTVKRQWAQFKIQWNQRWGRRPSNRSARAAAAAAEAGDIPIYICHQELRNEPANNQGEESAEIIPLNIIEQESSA
Method in brief: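 Stable hCTR2 clone in RAMP-naïve COS7 cells stimulated 15 min at 37 °C with increasing peptide concentrations in Tyrode buffer pH 7.4 containing IBMX and 0.1% casein. cAMP in lysates measured by AlphaScreen; EC50 from 4-parameter logistic fit.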

[2] = target: T2, human amylin receptor 3 (hAMYR3), hCTR2 co-expressed with hRAMP3 (Homo sapiens, UniProt O60896+P30988); experiment: hAMYR3 cAMP assay (AlphaScreen) in COS7 cells; type: cell-based; settings: cAMP induction, COS7 cells expressing hAMYR3; Table 1; read-out: hAMYR3 EC50
T2 construct: expressed in transfected cells
T2 sequence (P30988 25-474): T1 sequence (P30988 25-474)
T2 sequence (O60896 24-148 partner): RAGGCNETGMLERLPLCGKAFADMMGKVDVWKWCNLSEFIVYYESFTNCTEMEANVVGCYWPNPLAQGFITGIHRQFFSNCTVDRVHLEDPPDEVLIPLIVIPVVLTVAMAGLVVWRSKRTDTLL
Method in brief: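 Stable COS7 clone co-expressing hCTR2 and hRAMP3 was exposed to increasing peptide concentrations in Tyrode buffer (pH 7.4) with 100 µM IBMX and 0.1% casein for 15 min at 37 °C. Lysate cAMP was measured by AlphaScreen; EC50 came from 4-parameter logistic fitting.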

Compound | EC50 [1] [nM] | EC50 [2] [nM]
CC[C@H](C)[C@@H](C(=O)N[C@@H](CC(C)C)C(=O)N[C@@H](CO)C(=O)N[C@@H](CO)C(=O)N[C@H](C(=O)N[C@@H](CCC(=O)O)C(=O)N[C@H](C(=O)NCC(=O)N[C@@H](CO)C(=O)N[C@H](C(=O)N[C@H](C(=O)N1C[C@H](O)C[C@H]1C(N)=O)[C@@H](C)O)[C@@H](C)O)C(C)C)[C@@H](C)O)N(C)C(=O)[C@H](C)NC(=O)CN(C)C(=O)[C@H](Cc1ccccc1)NC(=O)[C@H](CO)NC(=O)[C@H](CO)NC(=O)[C@H](CCCNC(=N)N)NC(=O)[C@H](CCC(N)=O)NC(=O)[C@H](CC(C)C)NC(=O)[C@H](Cc1ccccc1)NC(=O)[C@H](Cc1c[nH]cn1)NC(=O)[C@H](C)NC(=O)[C@H](CC(C)C)NC(=O)[C@H](CCCNC(=N)N)NC(=O)[C@H](CCC(N)=O)NC(=O)[C@@H](NC(=O)[C@H](C)NC(=O)[C@@H]1CSSC[C@H](NC(=O)[C@H](CCCNC(=N)N)NC(=O)CC[C@H](NC(=O)CCCCCCCCCCCCCCCCCCC(=O)O)C(=O)O)C(=O)N[C@@H](CC(N)=O)C(=O)N[C@@H]([C@@H](C)O)C(=O)N[C@@H](C)C(=O)N[C@@H]([C@@H](C)O)C(=O)N1)[C@@H](C)O [Compound 73, [19CD]-isoGlu-R-C( )-NTAT-C( )-ATQRLAHFLQRSSF-Gly(Me)-A-Ile(Me)-LSSTEVGSTT-Hyp-NH2] ({C20 diacid-γGlu}-RCNTATCATQRLAHFLQRSSF[Sar]A[NMeI]LSSTEVGSTT[Hyp]-NH2; disulfide 2-7) | 0.12 | 0.24
CC[C@H](C)[C@@H](C(=O)N[C@@H](CC(C)C)C(=O)N[C@@H](CO)C(=O)N[C@@H](CO)C(=O)N[C@H](C(=O)N[C@@H](CCC(=O)O)C(=O)N[C@H](C(=O)NCC(=O)N[C@@H](CO)C(=O)N[C@@H](CCCC(=O)O)C(=O)N[C@H](C(=O)N1C[C@H](O)C[C@H]1C(N)=O)[C@@H](C)O)C(C)C)[C@@H](C)O)N(C)C(=O)[C@H](C)NC(=O)CN(C)C(=O)[C@H](Cc1ccccc1)NC(=O)[C@H](CO)NC(=O)[C@H](CO)NC(=O)[C@H](CCCNC(=N)N)NC(=O)[C@H](CCC(N)=O)NC(=O)[C@H](CC(C)C)NC(=O)[C@H](Cc1ccccc1)NC(=O)[C@H](Cc1c[nH]cn1)NC(=O)[C@H](C)NC(=O)[C@H](CC(C)C)NC(=O)[C@H](CCCNC(=N)N)NC(=O)[C@H](CCC(N)=O)NC(=O)[C@@H](NC(=O)[C@H](C)NC(=O)[C@@H]1CSSC[C@H](NC(=O)[C@H](CCCNC(=N)N)NC(=O)CC[C@H](NC(=O)CCCCCCCCCCCCCCCCCCC(=O)O)C(=O)O)C(=O)N[C@@H](CC(N)=O)C(=O)N[C@@H]([C@@H](C)O)C(=O)N[C@@H](C)C(=O)N[C@@H]([C@@H](C)O)C(=O)N1)[C@@H](C)O [Compound 75, [19CD]-isoGlu-R-C( )-NTAT-C( )-ATQRLAHFLQRSSF-Gly(Me)-A-Ile(Me)-LSSTEVGS-Aad-T-Hyp-NH2] ({C20 diacid-γGlu}-RCNTATCATQRLAHFLQRSSF[Sar]A[NMeI]LSSTEVGS[Aad]T[Hyp]-NH2; disulfide 2-7) | 0.36 | 0.26
CC[C@H](C)[C@@H](C(=O)N[C@@H](CC(C)C)C(=O)N[C@@H](CO)C(=O)N[C@@H](CO)C(=O)N[C@H](C(=O)N[C@@H](CCC(=O)O)C(=O)N[C@H](C(=O)NCC(=O)N[C@@H](CO)C(=O)N[C@@H](CC(N)=O)C(=O)N[C@H](C(=O)N1CCC[C@H]1C(N)=O)[C@@H](C)O)C(C)C)[C@@H](C)O)N(C)C(=O)[C@H](C)NC(=O)CN(C)C(=O)[C@H](Cc1ccccc1)NC(=O)[C@H](CO)NC(=O)[C@H](CO)NC(=O)[C@H](CCCNC(=N)N)NC(=O)[C@H](CCC(N)=O)NC(=O)[C@H](CC(C)C)NC(=O)[C@H](Cc1ccccc1)NC(=O)[C@H](Cc1c[nH]cn1)NC(=O)[C@H](C)NC(=O)[C@H](CC(C)C)NC(=O)[C@H](CCCNC(=N)N)NC(=O)[C@H](CCC(=O)O)NC(=O)[C@@H](NC(=O)[C@H](C)NC(=O)[C@@H]1CSSC[C@H](NC(=O)[C@H](CCCNC(=N)N)NC(=O)CC[C@H](NC(=O)CCCCCCCCCCCCCCCCCCC(=O)O)C(=O)O)C(=O)NCC(=O)N[C@@H]([C@@H](C)O)C(=O)N[C@@H](C)C(=O)N[C@@H]([C@@H](C)O)C(=O)N1)[C@@H](C)O [Compound 78, [19CD]-isoGlu-R-C( )-GTAT-C( )-ATERLAHFLQRSSF-Gly(Me)-A-Ile(Me)-LSSTEVGSNTP-NH2] ({C20 diacid-γGlu}-RCGTATCATERLAHFLQRSSF[Sar]A[NMeI]LSSTEVGSNTP-NH2; disulfide 2-7) | 0.15 | 0.24
CC[C@H](C)[C@@H](C(=O)N[C@@H](CC(C)C)C(=O)N[C@@H](CO)C(=O)N[C@@H](CO)C(=O)N[C@H](C(=O)N[C@@H](CCC(=O)O)C(=O)N[C@H](C(=O)NCC(=O)N[C@@H](CO)C(=O)N[C@H](C(=O)N[C@H](C(=O)N1CCC[C@H]1C(N)=O)[C@@H](C)O)[C@@H](C)O)C(C)C)[C@@H](C)O)N(C)C(=O)[C@H](C)NC(=O)CN(C)C(=O)[C@H](Cc1ccccc1)NC(=O)[C@H](CO)NC(=O)[C@H](CO)NC(=O)[C@H](CCCNC(=N)N)NC(=O)[C@H](CCC(N)=O)NC(=O)[C@H](CC(C)C)NC(=O)[C@H](Cc1ccccc1)NC(=O)[C@H](CC(=O)O)NC(=O)[C@H](C)NC(=O)[C@H](CC(C)C)NC(=O)[C@H](CCCNC(=N)N)NC(=O)[C@H](CCC(N)=O)NC(=O)[C@@H](NC(=O)[C@H](C)NC(=O)[C@@H]1CSSC[C@H](NC(=O)[C@H](CCCNC(=N)N)NC(=O)CC[C@H](NC(=O)CCCCCCCCCCCCCCCCCCC(=O)O)C(=O)O)C(=O)N[C@@H](CC(N)=O)C(=O)N[C@@H]([C@@H](C)O)C(=O)N[C@@H](C)C(=O)N[C@@H]([C@@H](C)O)C(=O)N1)[C@@H](C)O [Compound 82, [19CD]-isoGlu-R-C( )-NTAT-C( )-ATQRLADFLQRSSF-Gly(Me)-A-Ile(Me)-LSSTEVGSTTP-NH2] ({C20 diacid-γGlu}-RCNTATCATQRLADFLQRSSF[Sar]A[NMeI]LSSTEVGSTTP-NH2; disulfide 2-7) | 0.21 | 0.53

Further lines, results first:

EC50 [1] [nM] | EC50 [2] [nM] | Compound
0.13 | 0.32 | CC[C@H](C)[C@@H](C(=O)N[C@@H](CC(C)C)C(=O)N[C@@H](CO)C(=O)N[C@@H](CO)C(=O)N[C@H](C(=O)N[C@@H](CCC(=O)O)C(=O)N[C@H](C(=O)NCC(=O)N[C@@H](CO)C(=O)N[C@H](C(=O)N[C@H](C(=O)N1C[C@H](O)C[C@H]1C(N)=O)[C@@H](C)O)[C@@H](C)O)C(C)C)[C@@H](C)O)N(C)C(=O)[C@H](C)NC(=O)CN(C)C(=O)[C@H](Cc1ccccc1)NC(=O)[C@H](CO)NC(=O)[C@H](CO)NC(=O)[C@H](CCCNC(=N)N)NC(=O)[C@H](CCC(N)=O)NC(=O)[C@H](CC(C)C)NC(=O)[C@H](Cc1ccccc1)NC(=O)[C@H](CC(=O)O)NC(=O)[C@H](C)NC(=O)[C@H](CC(C)C)NC(=O)[C@H](CCCNC(=N)N)NC(=O)[C@H](CCC(N)=O)NC(=O)[C@@H](NC(=O)[C@H](C)NC(=O)[C@@H]1CSSC[C@H](NC(=O)[C@H](CCCNC(=N)N)NC(=O)CC[C@H](NC(=O)CCCCCCCCCCCCCCCCCCC(=O)O)C(=O)O)C(=O)N[C@@H](CC(N)=O)C(=O)N[C@@H]([C@@H](C)O)C(=O)N[C@@H](C)C(=O)N[C@@H]([C@@H](C)O)C(=O)N1)[C@@H](C)O [Compound 83, [19CD]-isoGlu-R-C( )-NTAT-C( )-ATQRLADFLQRSSF-Gly(Me)-A-Ile(Me)-LSSTEVGSTT-Hyp-NH2] ({C20 diacid-γGlu}-RCNTATCATQRLADFLQRSSF[Sar]A[NMeI]LSSTEVGSTT[Hyp]-NH2; disulfide 2-7)
0.1 | 0.14 | CC[C@H](C)[C@@H](C(=O)N[C@@H](CC(C)C)C(=O)N[C@@H](CO)C(=O)N[C@@H](CO)C(=O)N[C@H](C(=O)N[C@@H](CCC(=O)O)C(=O)N[C@H](C(=O)NCC(=O)N[C@@H](CO)C(=O)N[C@@H](CO)C(=O)N[C@H](C(=O)N1CCC[C@H]1C(N)=O)[C@@H](C)O)C(C)C)[C@@H](C)O)N(C)C(=O)[C@H](C)NC(=O)CN(C)C(=O)[C@H](Cc1ccccc1)NC(=O)[C@H](CO)NC(=O)[C@H](CO)NC(=O)[C@H](CCCNC(=N)N)NC(=O)[C@H](CCC(N)=O)NC(=O)[C@H](CC(C)C)NC(=O)[C@H](Cc1ccccc1)NC(=O)[C@H](Cc1c[nH]cn1)NC(=O)[C@H](C)NC(=O)[C@H](CC(C)C)NC(=O)[C@H](CCCNC(=N)N)NC(=O)[C@H](CCC(N)=O)NC(=O)[C@@H](NC(=O)[C@H](C)NC(=O)[C@@H]1CSSC[C@H](NC(=O)[C@H](CCCNC(=N)N)NC(=O)CC[C@H](NC(=O)CCCCCCCCCCCCCCCCCCC(=O)O)C(=O)O)C(=O)N[C@@H](CC(N)=O)C(=O)N[C@@H]([C@@H](C)O)C(=O)N[C@@H](C)C(=O)N[C@@H]([C@@H](C)O)C(=O)N1)[C@@H](C)O [Compound 85, [19CD]-isoGlu-R-C( )-NTAT-C( )-ATQRLAHFLQRSSF-Gly(Me)-A-Ile(Me)-LSSTEVGSSTP-NH2] ({C20 diacid-γGlu}-RCNTATCATQRLAHFLQRSSF[Sar]A[NMeI]LSSTEVGSSTP-NH2; disulfide 2-7)
